Measured values: US10696671B2, “Imidazo[1,2-A]pyridine derivatives, methods for preparing the same and use thereof” (Jeil Pharmaceutical Co., Ltd., priority 2016, dated 2020)

What was measured:
[1] = biological target: T1, proton pump (H+/K+-ATPase), porcine gastric vesicles (Sus scrofa, UniProt P19156); assay: Inhibitory effects against proton pump (H+/K+-ATPase) activity, malachite green phosphate assay; type: biochemical; conditions: pH 6.4, 37° C., K+-dependent activity
T1 construct: reaction buffer (50 mmol/L Tris-Hepes buffer, pH 6.4) containing porcine gastric vesicles; from tissue; host or cells: porcine gastric mucosa (gastric vesicles prepared by centrifugation)
T1 sequence (P19156 2-1034 limits assumed): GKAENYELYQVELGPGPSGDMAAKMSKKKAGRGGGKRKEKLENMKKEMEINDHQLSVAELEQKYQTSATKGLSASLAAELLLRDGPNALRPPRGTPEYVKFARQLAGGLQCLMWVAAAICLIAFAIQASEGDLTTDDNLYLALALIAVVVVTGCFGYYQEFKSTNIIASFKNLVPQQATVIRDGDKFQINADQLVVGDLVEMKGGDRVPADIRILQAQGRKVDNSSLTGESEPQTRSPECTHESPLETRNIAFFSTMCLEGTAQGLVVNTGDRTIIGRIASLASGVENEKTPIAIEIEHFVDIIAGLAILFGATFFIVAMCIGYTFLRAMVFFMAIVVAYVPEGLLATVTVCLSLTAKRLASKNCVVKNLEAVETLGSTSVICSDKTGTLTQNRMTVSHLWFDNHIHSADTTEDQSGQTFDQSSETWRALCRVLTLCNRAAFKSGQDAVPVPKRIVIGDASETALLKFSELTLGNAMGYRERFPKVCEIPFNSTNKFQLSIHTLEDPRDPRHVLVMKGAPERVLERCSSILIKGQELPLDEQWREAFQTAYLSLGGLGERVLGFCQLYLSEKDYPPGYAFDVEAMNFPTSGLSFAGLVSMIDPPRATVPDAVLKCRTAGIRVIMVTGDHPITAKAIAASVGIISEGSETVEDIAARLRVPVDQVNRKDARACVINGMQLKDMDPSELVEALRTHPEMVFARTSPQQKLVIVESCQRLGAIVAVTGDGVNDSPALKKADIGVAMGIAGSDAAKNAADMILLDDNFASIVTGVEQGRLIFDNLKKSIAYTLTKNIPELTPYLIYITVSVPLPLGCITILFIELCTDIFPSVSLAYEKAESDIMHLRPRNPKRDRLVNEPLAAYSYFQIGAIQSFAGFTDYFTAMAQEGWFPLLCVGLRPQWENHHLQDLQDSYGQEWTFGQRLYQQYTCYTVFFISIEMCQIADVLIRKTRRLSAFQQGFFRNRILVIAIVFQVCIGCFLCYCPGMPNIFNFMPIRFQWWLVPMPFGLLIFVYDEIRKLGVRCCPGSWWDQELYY
T1 sequence (P18434 whole entry partner): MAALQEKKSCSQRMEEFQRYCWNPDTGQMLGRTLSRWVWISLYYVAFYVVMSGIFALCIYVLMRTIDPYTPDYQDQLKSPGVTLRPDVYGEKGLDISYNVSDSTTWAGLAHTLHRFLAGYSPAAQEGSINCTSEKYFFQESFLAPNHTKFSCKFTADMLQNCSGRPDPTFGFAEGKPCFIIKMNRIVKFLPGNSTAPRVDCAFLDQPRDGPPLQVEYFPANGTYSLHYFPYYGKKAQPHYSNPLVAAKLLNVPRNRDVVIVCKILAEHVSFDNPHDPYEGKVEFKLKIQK
Procedure: Test Example 1: Preparation of Gastric Vesicles
Gastric vesicles used in the experiment were prepared by separation from porcine gastric mucosa according to a centrifugation method [Saccomani G, et al., A Nonelectrogenic H^+ Pump in Plasma Membranes of Hog Stomach, J Biol Chem., 1976, 251 (23), 7690-8]. Next, the protein content of the gastric vesicles was quantified using a bicinchoninic acid kit [Smith P K, et al., Measurement of protein using bicinchoninic acid, Anal Biochem., 1985, 150 (1), 76-85)].
Test Example 2: Measurement of Inhibitory Effects Against Proton Pump (H^+/K^+-ATPase) Activity
The inhibitory effects of the compounds against proton pump activity were calculated based on the pump activity determined in the presence of K^+ ions excluding the pump activity determined in the absence of K^+ ions. The inhibitory effects against proton pump activity were measured in 96-well plates, and all reactions were performed with a reaction volume of […] at 37° C. Specifically, 10 μm of valinomycin and each concentration of each compound were pre-incubated in a reaction buffer (50 mmol/L Tris-Hepes buffer, pH 6.4) containing porcine gastric vesicles for 15 minutes. For negative and positive control groups, 1% DMSO was added to buffer, and for test groups, 1% DMSO and a dilution of each concentration of each compound were added. Next, 0.2 mmol/L of adenosine triphosphate (ATP) was added to the reaction buffer and incubated at 37° C. for 40 minutes. After completion of the incubation, a malachite green solution was added to the reaction buffer and incubated for 30 minutes, and the amount of inorganic phosphate in the reaction buffer was measured by colorimetry using a malachite green phosphate assay Kit (Bioassay Systems). For colorimetry, the OD (optical density) at 620 nm was measured using a microplate reader [Synergy H4, hybrid multimode microplate reader, BioTek]. The percent inhibition of proton pump (H^+/K^+-ATPase) was determined based on the OD value of the control group and the OD values of various concentrations of the test compounds, and the IC50 of each test compound was calculated using the Logistic 4-parameter function of Sigmaplot 8.0 program.

[2] = test system: histamine-stimulated gastric acid secretion; assay: Inhibitory effects against histamine-stimulated gastric acid secretion in pylorus-ligated rats (Shay's rat models); type: in vivo, Sprague-Dawley (SD) rats; conditions: percent inhibition of total acid output vs control, 2 mg/kg oral 1 hour before pylorus ligation, histamine 30 mg/kg s.c., 3 hours after ligation
Procedure: Test Example 4: Inhibitory Effects against Histamine-Stimulated Gastric Acid Secretion in Pylorus-Ligated Rats The inhibitory effects of the compounds of the present disclosure against histamine-stimulated gastric acid secretion were evaluated using Shay's rat models [Shay H, et al. A simple method for the uniform production of gastric ulceration in the rat, Gastroenterology, 1945, 5, 43-61]. Male Sprague-Dawley (SD) rats (weighing 180-210 g) were divided into X groups (n=7) and fasted with only water access for 24 hours. At 1 hour before pylorus ligation, the control group was administered orally with only 10% DMSO, 10% Cremophor EL and 80% water, and the other groups were administered orally with 2 mg/kg/2 ml of each compound together with 10% DMSO, 10% Cremophor EL and 80% water. The abdominal cavity of each rate was incised under isoflurane anesthesia, and the pylorus was ligated. Immediately after ligation, histamine 2HCl was administered subcutaneously to each rat at a dose of 30 mg/kg/10 ml. At 3 hours after ligation, the test animals were euthanized, and the gastric content was extracted. The extracted gastric content was centrifuged at 3,000×g for 10 minutes, and the supernatant was collected to obtain gastric juice. Next, the acidity of the gastric juice was determined based on the volume of (ueq/ml) of 0.1 N—NaOH required for automatic titration of the gastric juice to pH 7.0, and the acidity of the gastric juice was multiplied by the amount of the gastric juice to determine total acid output. Percent (%) inhibitory activity of test compounds={(total acid output in control group−total acid output in group treated with test compound)/total acid output in control group}×100.

[3] = test system: esophageal injury in reflux esophagitis models; assay: Inhibitory effects against esophageal injury in reflux esophagitis models; type: in vivo, Sprague Dawley (SD) rats; conditions: Rattus norvegicus; percent inhibition of esophageal injury area vs control; rats, 2 mg/kg oral 1 hour before ligation, measured 6 hours after ligation; read-out: GERD (rat/mpk)
Procedure: Test Example 3: Inhibitory Effects against Esophageal Injury in Reflux Esophagitis Models The inhibitory effects of the compounds of the present disclosure against esophageal injury in reflux esophagitis models were evaluated according to the method of Nakamura [Nakamura K, et al., Effects of sodium polyacrylate (PANa) on acute esophagitis by gastric juice in rats, Jpn J Pharmacology, 1982, 32, 445-56]. Male Sprague Dawley (SD) rats (weighing 180-210 g) were divided into X groups (n=6) and fasted without water for 24 hours. Then, the control group was administered orally with only 10% DMSO, 10% Cremophor EL and 80% water, and the other groups were administered orally with 2 mg/kg/2 ml of each test compound together with 10% DMSO, 10% Cremophor EL and 80% water. At 1 hour after administration of the excipients and each compound, the abdominal cavity of each rate was incised under isoflurane anesthesia, and the pylorus was ligated, and the boundary between the anterior portion and the body was also ligated. At 6 hours after ligation, the test animals were euthanized, and the esophagus ranging from the thyroid to the cardiac portion was carefully extracted. The extracted esophagus was incised in a longitudinal direction and spread so as to expose the mucosa and was then fixed, after which the area of esophageal injury was measured. Percent (%) inhibitory activity of test compounds={(total esophageal injury area of control group−esophageal injury area of group treated with test compound)/total esophageal injury area of control group}×100.

IC50 [1] [µM] | SMILES | acid output (rat/2 mpk) [2] [%] | inhibition in vivo at 2 mg/kg [3] [%]
0.02 | Cc1cccc(C)c1CNc1cc(C(=O)N2CC(O)C2)cn2c(C)c(C)nc12 [Example 1, {8-[(2,6-Dimethylbenzyl)amino]-2,3-dimethylimidazo[1,2-α]pyridin-6-yl}(3-hydroxyazetidin-1-yl)methanone] | 71 | 84
0.017 | Cc1cccc(C)c1CNc1cc(C(=O)N2CCC2)cn2c(C)c(C)nc12 [Example 6, azetidin-1-yl{8-[(2,6-dimethylbenzyl)amino]-2,3-dimethylimidazo[1,2-α]pyridin-6-yl}methanone] | 94 | 100
0.055 | Cc1cccc(C)c1CNc1cc(C(=O)N2CC(F)C2)cn2c(C)c(C)nc12 [Example 7, {8-[(2,6-dimethylbenzyl)amino]-2,3-dimethylimidazo[1,2-a]pyridin-6-yl}(3-fluoroazetidin-1-yl)methanone] | 91 | 100
0.096 | Cc1cccc(C)c1CNc1cc(C(=O)N2CC(C)C2)cn2c(C)c(C)nc12 [Example 8, {8-[(2,6-dimethylbenzyl)amino]-2,3-dimethylimidazo[1,2-α]pyridin-6-yl}(3-methylazetidin-1-yl)methanone] | – | 95.4
0.069 | Cc1cccc(C)c1CNc1cc(C(=O)N2CC(C)(O)C2)cn2c(C)c(C)nc12 [Example 9, {8-[(2,6-dimethylbenzyl)amino]-2,3-dimethylimidazo[1,2-α]pyridin-6-yl}(3-hydroxy-3-methylazetidin-1-yl)methanone] | – | 77.2
0.039 | Cc1cccc(C)c1CNc1cc(C(=O)N2CC(CO)C2)cn2c(C)c(C)nc12 [Example 11, {8-[(2,6-dimethylbenzyl)amino]-2,3-dimethylimidazo[1,2-α]pyridin-6-yl}[3-(hydroxymethyl)azetidin-1-yl]methanone] | 78 | 97.6
0.143 | Cc1cc(F)ccc1CNc1cc(C(=O)N2CC(CO)C2)cn2c(C)c(C)nc12 [Example 33, {8-[(4-fluoro-2-methylbenzyl)amino]-2,3-dimethylimidazo[1,2-α]pyridin-6-yl}(3-(hydroxymethyl)azetidin-1-yl)methanone] | – | 92.7
0.028 | Cc1cc(F)cc(C)c1CNc1cc(C(=O)N2CC(O)C2)cn2c(C)c(C)nc12 [Example 34, {8-[(4-fluoro-2,6-dimethylbenzyl)amino]-2,3-dimethylimidazo[1,2-α]pyridin-6-yl}(3-hydroxyazetidin-1-yl)methanone] | – | 91.4
0.029 | Cc1cc(F)cc(C)c1CNc1cc(C(=O)N2CC(F)C2)cn2c(C)c(C)nc12 [Example 36, {8-[(4-fluoro-2,6-dimethylbenzyl)amino]-2,3-dimethylimidazo[1,2-α]pyridin-6-yl}(3-fluoroazetidin-1-yl)methanone] | – | 98.2
0.024 | Cc1cc(F)cc(C)c1CNc1cc(C(=O)N2CC(CO)C2)cn2c(C)c(C)nc12 [Example 39, {8-[(4-fluoro-2,6-dimethylbenzyl)amino]-2,3-dimethylimidazo[1,2-α]pyridin-6-yl}[3-(hydroxymethyl)azetidin-1-yl]methanone] | – | 98.4
0.061 | Cc1ccc(F)c(C)c1CNc1cc(C(=O)N2CC(CO)C2)cn2c(C)c(C)nc12 [Example 44, {8-[(3-fluoro-2,6-dimethylbenzyl)amino]-2,3-dimethylimidazo[1,2-α]pyridin-6-yl}[3-(hydroxymethyl)azetidin-1-yl]methanone] | – | –
0.081 | Cc1ccc(Cl)c(C)c1CNc1cc(C(=O)N2CCC2)cn2c(C)c(C)nc12 [Example 45, azetidin-1-yl{8-[(3-chloro-2,6-dimethylbenzyl)amino]-2,3-dimethylimidazo[1,2-α]pyridin-6-yl}methanone] | – | –
0.163 | Cc1ccc(Cl)c(C)c1CNc1cc(C(=O)N2CC(O)C2)cn2c(C)c(C)nc12 [Example 46] | – | –
0.624 | Cc1ccc(Cl)c(C)c1CNc1cc(C(=O)N2CC(F)C2)cn2c(C)c(C)nc12 [Example 47, {8-[(3-chloro-2,6-dimethylbenzyl)amino]-2,3-dimethylimidazo[1,2-α]pyridin-6-yl}(3-fluoroazetidin-1-yl)methanone] | – | –
0.102 | Cc1ccc(Cl)c(C)c1CNc1cc(C(=O)N2CC(CO)C2)cn2c(C)c(C)nc12 [Example 48, {8-[(3-chloro-2,6-dimethylbenzyl)amino]-2,3-dimethylimidazo[1,2-α]pyridin-6-yl}[3-(hydroxymethyl)azetidin-1-yl]methanone] | – | –
